From ChEMBL document CHEMBL3868599, “Strategy for designing selective α-l-rhamnosidase inhibitors: Synthesis and biological evaluation of l-DMDP cyclic isothioureas” (Bioorg Med Chem, 2017)

Legend:
[1] = target: T1, Beta-galactosidase (Bos taurus) (UniProt Q58D55); assay: Inhibition of bovine liver beta-galactosidase at 1000 uM using p-nitrophenyl-glycoside as substrate by spectrophotometric method
T1 sequence (whole entry): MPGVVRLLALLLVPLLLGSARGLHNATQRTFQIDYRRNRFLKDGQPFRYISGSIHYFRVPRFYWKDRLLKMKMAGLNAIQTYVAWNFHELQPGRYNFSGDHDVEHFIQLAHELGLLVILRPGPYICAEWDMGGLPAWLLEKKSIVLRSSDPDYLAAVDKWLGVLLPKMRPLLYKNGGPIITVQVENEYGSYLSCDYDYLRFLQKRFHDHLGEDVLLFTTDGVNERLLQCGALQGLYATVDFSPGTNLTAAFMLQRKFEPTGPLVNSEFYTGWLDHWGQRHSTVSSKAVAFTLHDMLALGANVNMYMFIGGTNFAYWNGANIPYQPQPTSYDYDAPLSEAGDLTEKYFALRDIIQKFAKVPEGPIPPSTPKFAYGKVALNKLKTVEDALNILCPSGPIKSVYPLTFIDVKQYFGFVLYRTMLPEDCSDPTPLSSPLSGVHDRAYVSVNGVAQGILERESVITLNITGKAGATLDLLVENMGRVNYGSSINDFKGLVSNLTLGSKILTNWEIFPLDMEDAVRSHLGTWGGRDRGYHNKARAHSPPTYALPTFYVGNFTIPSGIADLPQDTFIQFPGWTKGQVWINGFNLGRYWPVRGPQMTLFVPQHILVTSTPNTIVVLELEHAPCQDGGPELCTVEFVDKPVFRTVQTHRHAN

Rattus norvegicus [2] = species: Rattus norvegicus; assay: Inhibition of rat intestinal maltase assessed as D-glucose level at 1000 uM using maltose as substrate measured after 10 to 30 mins
Penicillium decumbens = assay: Inhibition of Penicillium decumbens alpha-L-rhamnosidase at 1000 uM using p-nitrophenyl-glycoside as substrate by spectrophotometric method
Bos taurus [3] = species: Bos taurus; assay: Inhibition of bovine liver beta-glucosidase at 1000 uM using p-nitrophenyl-glycoside as substrate by spectrophotometric method
[4] = target: T2, Tissue alpha-L-fucosidase (Bos taurus) (UniProt Q2KIM0); assay: Inhibition of bovine kidney alpha-L-fucosidase at 1000 uM using p-nitrophenyl-glycoside as substrate by spectrophotometric method
T2 sequence (whole entry): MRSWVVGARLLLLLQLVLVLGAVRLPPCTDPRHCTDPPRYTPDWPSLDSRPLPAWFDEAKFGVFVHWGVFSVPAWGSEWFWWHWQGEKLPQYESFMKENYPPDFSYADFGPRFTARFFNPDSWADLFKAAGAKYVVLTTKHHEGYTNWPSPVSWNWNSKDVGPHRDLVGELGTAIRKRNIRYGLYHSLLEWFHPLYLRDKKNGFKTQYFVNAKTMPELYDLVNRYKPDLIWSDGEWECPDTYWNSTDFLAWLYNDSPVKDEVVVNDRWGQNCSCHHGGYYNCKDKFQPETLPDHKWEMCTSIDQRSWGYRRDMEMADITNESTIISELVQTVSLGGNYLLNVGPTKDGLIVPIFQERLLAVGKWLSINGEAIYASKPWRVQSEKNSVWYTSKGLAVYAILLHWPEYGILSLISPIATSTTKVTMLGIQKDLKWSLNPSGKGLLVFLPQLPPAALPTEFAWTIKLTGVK

Homo sapiens [5] = species: Homo sapiens; assay: Inhibition of human lysosomal beta-glucosidase at 1000 uM using 4-methylumbelliferyl-beta-D-glucopyranoside as substrate preincubated for 45 mins followed by substrate addition measured after 30 mins by fluorescence spectrophotometric method
Prunus dulcis [6] = assay: Inhibition of almond beta-glucosidase at 1000 uM using p-nitrophenyl-glycoside as substrate by spectrophotometric method
Aspergillus niger [7] = assay: Inhibition of Aspergillus niger amyloglucosidase assessed as D-glucose level at 1000 uM using maltose as substrate measured after 10 to 30 mins
[8] = target: T3, Uncharacterized protein (Sus scrofa) (UniProt I3LIR5); assay: Inhibition of porcine kidney trehalase assessed as D-glucose level at 1000 uM using maltose as substrate measured after 10 to 30 mins
T3 sequence (whole entry): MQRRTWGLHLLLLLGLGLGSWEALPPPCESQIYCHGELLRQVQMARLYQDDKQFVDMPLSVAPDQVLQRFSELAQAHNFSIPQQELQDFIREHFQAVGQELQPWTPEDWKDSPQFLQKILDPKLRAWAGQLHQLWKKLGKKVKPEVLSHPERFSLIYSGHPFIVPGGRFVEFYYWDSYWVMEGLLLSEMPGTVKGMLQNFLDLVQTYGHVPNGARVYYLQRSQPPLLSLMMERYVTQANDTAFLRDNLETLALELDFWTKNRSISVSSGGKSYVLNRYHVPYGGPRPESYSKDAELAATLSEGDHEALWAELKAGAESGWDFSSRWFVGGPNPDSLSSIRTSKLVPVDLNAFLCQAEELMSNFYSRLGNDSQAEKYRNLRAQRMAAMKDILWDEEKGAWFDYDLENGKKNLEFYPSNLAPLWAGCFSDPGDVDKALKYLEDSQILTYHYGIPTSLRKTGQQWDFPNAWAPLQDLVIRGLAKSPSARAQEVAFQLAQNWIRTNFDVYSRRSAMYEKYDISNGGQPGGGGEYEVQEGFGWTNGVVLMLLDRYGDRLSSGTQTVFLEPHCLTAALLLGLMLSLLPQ

Escherichia coli [9] = assay: Inhibition of Escherichia coli beta-glucuronidase at 1000 uM using p-nitrophenyl-glycoside as substrate by spectrophotometric method
Oryza sativa [10] = assay: Inhibition of rice alpha-glucosidase at 1000 uM using p-nitrophenyl-glycoside as substrate by spectrophotometric method
[11] = Inhibition of Penicillium decumbens alpha-L-rhamnosidase using p-nitrophenyl-glycoside as substrate by spectrophotometric method
Beta-galactosidase = target: T4, Beta-galactosidase (Bos taurus, UniProt Q58D55); assay: Inhibition of bovine liver beta-galactosidase using p-nitrophenyl-glycoside as substrate by spectrophotometric method
T4 sequence (Q58D55 whole entry): T1 sequence (whole entry)

[12] = target: T2, Tissue alpha-L-fucosidase (Bos taurus); assay: Inhibition of bovine kidney alpha-L-fucosidase at 100 uM using p-nitrophenyl-glycoside as substrate by spectrophotometric method
Prunus dulcis [13] = assay: Inhibition of almond beta-glucosidase at 100 uM using p-nitrophenyl-glycoside as substrate by spectrophotometric method
Oryza sativa [14] = assay: Inhibition of rice alpha-glucosidase at 100 uM using p-nitrophenyl-glycoside as substrate by spectrophotometric method
Rattus norvegicus [15] = species: Rattus norvegicus; assay: Inhibition of rat intestinal maltase assessed as D-glucose level at 100 uM using maltose as substrate measured after 10 to 30 mins
Aspergillus niger [16] = assay: Inhibition of Aspergillus niger amyloglucosidase assessed as D-glucose level at 100 uM using maltose as substrate measured after 10 to 30 mins
Homo sapiens [17] = species: Homo sapiens; assay: Inhibition of human lysosomal beta-glucosidase at 100 uM using 4-methylumbelliferyl-beta-D-glucopyranoside as substrate preincubated for 45 mins followed by substrate addition measured after 30 mins by fluorescence spectrophotometric method
[18] = Inhibition of bovine liver beta-glucosidase using p-nitrophenyl-glycoside as substrate by spectrophotometric method; parameters: species or system Bos taurus
Escherichia coli [19] = assay: Inhibition of Escherichia coli beta-glucuronidase at 100 uM using p-nitrophenyl-glycoside as substrate by spectrophotometric method
[20] = target: T3, Uncharacterized protein (Sus scrofa); assay: Inhibition of porcine kidney trehalase assessed as D-glucose level at 100 uM using maltose as substrate measured after 10 to 30 mins
[21] = Inhibition of Penicillium decumbens alpha-L-rhamnosidase
Bos taurus [22] = species: Bos taurus; assay: Inhibition of bovine liver beta-glucosidase at 100 uM using p-nitrophenyl-glycoside as substrate by spectrophotometric method
[23] = Inhibition of human lysosomal beta-glucosidase using 4-methylumbelliferyl-beta-D-glucopyranoside as substrate preincubated for 45 mins followed by substrate addition measured after 30 mins by fluorescence spectrophotometric method

For `CCCCNC(=S)N1[C@H](CO)[C@@H](O)[C@H](O)[C@H]1CO`, the inhibition [1] was less than 50%, the inhibition (Rattus norvegicus [2]) was less than 50% and the inhibition (Penicillium decumbens) was less than 50%. It also gave an inhibition (Bos taurus [3]) of less than 50%, an inhibition [4] of less than 50% and an inhibition (Homo sapiens [5]) of less than 50%. It also gave an inhibition (Prunus dulcis [6]) of less than 50%, an inhibition (Aspergillus niger [7]) of less than 50% and an inhibition [8] of less than 50%. For the same compound, the inhibition (Escherichia coli [9]) was less than 50% and the inhibition (Oryza sativa [10]) was less than 50%.

In the case of `OC[C@H]1[C@H](O)[C@@H](O)[C@@H]2CS/C(=N/Cc3ccc(F)cc3)N12`, the IC50 [11] is reported as 1.8 µM.

`CCCCCCNC(=S)N1[C@@H](CO)[C@H](O)[C@@H](O)[C@@H]1CO` gave an IC50 (Beta-galactosidase) of 572 µM, an inhibition (Rattus norvegicus [2]) of less than 50% and an inhibition (Penicillium decumbens) of less than 50%. For the same compound, the inhibition (Bos taurus [3]) was less than 50%, the inhibition [4] was less than 50% and the inhibition (Homo sapiens [5]) was less than 50%. For the same compound, the inhibition (Prunus dulcis [6]) was less than 50%, the inhibition (Aspergillus niger [7]) was less than 50% and the inhibition [8] was less than 50%. The inhibition (Escherichia coli [9]) was less than 50% and the inhibition (Oryza sativa [10]) was less than 50%.

`OC[C@H]1[C@H](O)[C@@H](O)[C@@H]2CS/C(=N/Cc3ccccc3Cl)N12` showed an IC50 [11] of 2.5 µM.

`CCCCCCCCCCCC/N=C1/SC[C@H]2[C@H](O)[C@@H](O)[C@H](CO)N12` showed an IC50 (Beta-galactosidase) of 11 µM, an inhibition [12] of less than 50% and an inhibition (Prunus dulcis [13]) of less than 50%. For the same compound, the inhibition (Oryza sativa [14]) was less than 50%, the inhibition (Rattus norvegicus [15]) was less than 50% and the inhibition (Aspergillus niger [16]) was less than 50%. It also gave an inhibition (Homo sapiens [17]) of less than 50%, an IC50 [11] of 0.46 µM and an IC50 [18] of 9.5 µM. The inhibition (Escherichia coli [19]) was less than 50% and the inhibition [20] was less than 50%.

In the case of `OC[C@H]1[C@H](O)[C@@H](O)[C@@H]2CS/C(=N/Cc3cc(Cl)c(Cl)c(Cl)c3)N12`, the IC50 [11] is reported as 0.45 µM.

In the case of `C[C@@H]1C[C@H](O)[C@H]2[C@@H](O)[C@@H](O)CN2C1`, the IC50 [21] is reported as 0.032 to 0.034 µM.

`OC[C@H]1[C@H](O)[C@@H](O)[C@@H]2CS/C(=N/Cc3cccc(Cl)c3)N12` gave an IC50 [11] of 0.7 µM.

With `COc1ccc(C[C@@H]2NC[C@H](O)[C@H]2O)cc1` the IC50 [21] was 3.7 µM.

In the case of `OC[C@@H]1[C@H](O)[C@@H](O)[C@@H]2CCCCN12`, the IC50 [21] is reported as 3.3 µM.

`CCCCCCCCCC/N=C1/SC[C@H]2[C@H](O)[C@@H](O)[C@H](CO)N12` showed an IC50 (Beta-galactosidase) of 36 µM, an inhibition [12] of less than 50% and an inhibition (Prunus dulcis [13]) of less than 50%. It also gave an inhibition (Oryza sativa [14]) of less than 50%, an inhibition (Rattus norvegicus [15]) of less than 50% and an inhibition (Aspergillus niger [16]) of less than 50%. It also gave an inhibition (Homo sapiens [17]) of less than 50%, an IC50 [11] of 0.77 µM and an inhibition (Escherichia coli [19]) of less than 50%. It also gave an inhibition (Bos taurus [22]) of less than 50% and an inhibition [20] of less than 50%.

In the case of `CCCCCCCCNC(=S)N1[C@H](CO)[C@@H](O)[C@H](O)[C@H]1CO`, the IC50 (Beta-galactosidase) is reported as 414 µM, the inhibition (Rattus norvegicus [2]) is reported as less than 50% and the inhibition (Penicillium decumbens) is reported as less than 50%. For the same compound, the IC50 [23] was 12 µM, the inhibition [4] was less than 50% and the inhibition (Prunus dulcis [6]) was less than 50%. The inhibition (Aspergillus niger [7]) was less than 50%, the IC50 [18] was 689 µM and the inhibition [8] was less than 50%. For the same compound, the inhibition (Escherichia coli [9]) was less than 50% and the inhibition (Oryza sativa [10]) was less than 50%.

`OC[C@H]1[C@H](O)[C@@H](O)[C@@H]2CS/C(=N/Cc3cc(Cl)cc(Cl)c3)N12` showed an IC50 [11] of 0.7 µM.
